Data as given in ChEMBL document CHEMBL5053503 (J Med Chem, 2021).
Active and inactive are the calls of the source. The calls are words filed in the database; no cut-off is given here.

Experiments:
[1] = biological target: T1, 5-hydroxytryptamine receptor 2C (Homo sapiens) (UniProt P28335); assay: Displacement of [125I](+/-)DOI from human recombinant 5-HT2C receptor expressed in CHO cells at 10 uM measured after 60 mins by radioligand completion assay relative to control; assay type: cell-based
T1 sequence (whole entry): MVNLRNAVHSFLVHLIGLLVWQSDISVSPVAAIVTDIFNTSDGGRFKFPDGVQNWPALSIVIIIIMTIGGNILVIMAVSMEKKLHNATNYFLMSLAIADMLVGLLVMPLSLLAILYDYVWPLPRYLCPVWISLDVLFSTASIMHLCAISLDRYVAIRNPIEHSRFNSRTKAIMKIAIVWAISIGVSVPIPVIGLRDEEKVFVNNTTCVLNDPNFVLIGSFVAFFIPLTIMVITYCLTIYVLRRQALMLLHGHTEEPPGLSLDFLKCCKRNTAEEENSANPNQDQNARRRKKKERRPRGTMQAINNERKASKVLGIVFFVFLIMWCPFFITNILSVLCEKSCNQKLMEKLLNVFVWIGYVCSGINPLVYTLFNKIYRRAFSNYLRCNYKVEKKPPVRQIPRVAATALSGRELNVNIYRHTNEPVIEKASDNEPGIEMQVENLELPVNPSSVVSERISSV

[2] = biological target: 5-hydroxytryptamine receptor 1B (Rattus norvegicus) (UniProt P28564); assay: Displacement of [125I]CYP from rat cerebral cortex 5-HT1B receptor at 10 uM measured after 120 mins by radioligand completion assay relative to control; assay type: tissue-based
Sequence of 5-hydroxytryptamine receptor 1B (Rattus norvegicus) (P28564 whole entry): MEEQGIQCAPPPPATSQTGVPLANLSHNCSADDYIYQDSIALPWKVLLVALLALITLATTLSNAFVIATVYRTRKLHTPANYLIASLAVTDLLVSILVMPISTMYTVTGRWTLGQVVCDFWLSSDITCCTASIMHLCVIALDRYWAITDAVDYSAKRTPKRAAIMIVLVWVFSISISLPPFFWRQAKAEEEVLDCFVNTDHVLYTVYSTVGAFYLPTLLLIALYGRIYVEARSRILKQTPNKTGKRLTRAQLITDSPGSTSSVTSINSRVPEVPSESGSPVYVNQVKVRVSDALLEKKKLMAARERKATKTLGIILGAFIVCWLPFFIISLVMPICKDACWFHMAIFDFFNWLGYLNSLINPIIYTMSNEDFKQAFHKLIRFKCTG

[3] = biological target: T2, 5-hydroxytryptamine receptor 3A (Homo sapiens) (UniProt P46098); assay: Displacement of [3H]BRL43694 from human recombinant 5-HT3 receptor expressed in CHO cells at 10 uM measured after 120 mins by radioligand completion assay relative to control; assay type: cell-based
T2 sequence (whole entry): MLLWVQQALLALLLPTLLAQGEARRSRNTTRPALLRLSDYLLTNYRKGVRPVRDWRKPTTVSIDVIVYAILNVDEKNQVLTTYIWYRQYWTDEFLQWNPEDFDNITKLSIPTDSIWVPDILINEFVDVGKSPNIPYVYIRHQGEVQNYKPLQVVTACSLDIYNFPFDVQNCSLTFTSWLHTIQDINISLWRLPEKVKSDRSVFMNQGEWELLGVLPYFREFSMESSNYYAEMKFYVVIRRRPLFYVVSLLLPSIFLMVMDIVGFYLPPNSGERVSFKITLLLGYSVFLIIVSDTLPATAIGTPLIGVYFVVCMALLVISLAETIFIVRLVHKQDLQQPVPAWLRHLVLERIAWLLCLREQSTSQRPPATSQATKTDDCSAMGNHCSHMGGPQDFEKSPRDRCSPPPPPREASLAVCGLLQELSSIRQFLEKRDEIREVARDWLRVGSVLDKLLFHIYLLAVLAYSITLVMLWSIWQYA

[4] = biological target: T3, 5-hydroxytryptamine receptor 1A (Homo sapiens) (UniProt P08908); assay: Displacement of [3H][…] from human recombinant 5-HT1A receptor expressed in cells at 100 nM measured after 60 to 90 mins by radioligand completion assay relative to control; assay type: cell-based; settings: time 60-90 min
T3 sequence (whole entry): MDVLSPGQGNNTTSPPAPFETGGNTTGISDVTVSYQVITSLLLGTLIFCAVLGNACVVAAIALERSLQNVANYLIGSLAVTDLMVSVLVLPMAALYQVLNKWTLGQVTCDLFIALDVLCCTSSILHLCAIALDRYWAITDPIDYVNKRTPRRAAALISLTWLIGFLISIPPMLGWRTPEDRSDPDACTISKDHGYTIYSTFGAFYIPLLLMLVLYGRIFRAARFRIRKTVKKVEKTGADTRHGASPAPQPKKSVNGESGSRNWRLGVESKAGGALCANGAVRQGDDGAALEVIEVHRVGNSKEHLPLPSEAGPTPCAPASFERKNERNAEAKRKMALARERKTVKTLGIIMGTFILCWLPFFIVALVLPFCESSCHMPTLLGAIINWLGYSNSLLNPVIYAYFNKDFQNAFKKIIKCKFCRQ

[5] = biological target: T1, 5-hydroxytryptamine receptor 2C (Homo sapiens); assay: Displacement of [125I](+/-)DOI from human recombinant 5-HT2C receptor expressed in CHO cells at 100 nM measured after 60 mins by radioligand completion assay relative to control; assay type: cell-based
[6] = biological target: T4, 5-hydroxytryptamine receptor 2B (Homo sapiens, UniProt P41595); assay: Displacement of [125I](+/-)DOI from human recombinant 5-HT2B receptor expressed in CHO cells at 100 nM measured after 60 mins by radioligand completion assay relative to control; assay type: cell-based
T4 sequence (P41595 whole entry): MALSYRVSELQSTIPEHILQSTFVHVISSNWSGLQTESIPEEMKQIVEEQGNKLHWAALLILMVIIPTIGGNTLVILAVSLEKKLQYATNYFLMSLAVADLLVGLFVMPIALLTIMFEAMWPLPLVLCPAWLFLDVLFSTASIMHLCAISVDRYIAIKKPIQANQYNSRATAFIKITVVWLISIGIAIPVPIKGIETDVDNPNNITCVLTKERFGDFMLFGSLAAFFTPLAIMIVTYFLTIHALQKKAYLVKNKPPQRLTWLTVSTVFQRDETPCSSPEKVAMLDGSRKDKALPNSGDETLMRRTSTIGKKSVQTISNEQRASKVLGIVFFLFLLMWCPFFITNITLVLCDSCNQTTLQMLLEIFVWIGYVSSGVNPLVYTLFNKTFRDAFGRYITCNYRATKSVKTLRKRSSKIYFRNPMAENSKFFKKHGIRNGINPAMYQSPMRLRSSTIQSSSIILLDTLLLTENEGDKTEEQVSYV

[7] = biological target: T3, 5-hydroxytryptamine receptor 1A (Homo sapiens); assay: Displacement of [3H][…] from human recombinant 5-HT1A receptor expressed in cells at 10 uM measured after 60 to 90 mins by radioligand completion assay relative to control; assay type: cell-based; settings: time 60-90 min
[8] = biological target: T4, 5-hydroxytryptamine receptor 2B; assay: Displacement of [125I](+/-)DOI from human recombinant 5-HT2B receptor expressed in CHO cells at 10 uM measured after 60 mins by radioligand completion assay relative to control; assay type: cell-based
[9] = biological target: T5, 5-hydroxytryptamine receptor 2A (Homo sapiens, UniProt P28223); assay: Displacement of [125I](+/-)DOI from human recombinant 5-HT2A receptor expressed in HEK293 cells at 10 uM measured after 60 to 90 mins by radioligand completion assay relative to control; assay type: cell-based; settings: time 60-90 min
T5 sequence (P28223 whole entry): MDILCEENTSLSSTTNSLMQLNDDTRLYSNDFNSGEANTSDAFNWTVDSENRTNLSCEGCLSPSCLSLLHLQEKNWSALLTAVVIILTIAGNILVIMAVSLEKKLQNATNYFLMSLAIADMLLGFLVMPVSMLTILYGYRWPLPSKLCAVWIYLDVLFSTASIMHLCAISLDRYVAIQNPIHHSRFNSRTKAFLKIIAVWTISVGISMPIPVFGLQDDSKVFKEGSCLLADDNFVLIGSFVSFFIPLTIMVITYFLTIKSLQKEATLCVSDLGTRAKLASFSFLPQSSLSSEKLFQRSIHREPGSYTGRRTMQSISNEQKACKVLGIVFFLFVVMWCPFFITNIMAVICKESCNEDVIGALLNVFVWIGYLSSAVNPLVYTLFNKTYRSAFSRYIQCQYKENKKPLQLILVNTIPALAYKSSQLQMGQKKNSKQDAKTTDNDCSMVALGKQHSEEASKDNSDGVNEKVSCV

[10] = biological target: T5, 5-hydroxytryptamine receptor 2A; assay: Displacement of [125I](+/-)DOI from human recombinant 5-HT2A receptor expressed in HEK293 cells at 100 nM measured after 60 to 90 mins by radioligand completion assay relative to control; assay type: cell-based; settings: time 60-90 min
[11] = biological target: T2, 5-hydroxytryptamine receptor 3A (Homo sapiens); assay: Displacement of [3H]BRL43694 from human recombinant 5-HT3 receptor expressed in CHO cells at 100 nM measured after 120 mins by radioligand completion assay relative to control; assay type: cell-based
[12] = biological target: T5, 5-hydroxytryptamine receptor 2A; assay: Displacement of [3H]LSD from human recombinant 5-HT2A receptor expressed in HEK cells by radioligand completion assay relative to control; assay type: cell-based
[13] = biological target: T6, 5-hydroxytryptamine receptor 1A (Homo sapiens, UniProt P08908); assay: Displacement of [3H][…] from human recombinant 5-HT1A receptor expressed in CHO cells measured after 60 to 90 mins by radioligand completion assay relative to control; assay type: cell-based
T6 sequence (P08908 whole entry): T3 sequence (whole entry)

[14] = Clearence in Sprague-Dawley rat at 5 mg/kg, iv; assay type: ADME, organism-based; settings: in vivo
[15] = Apparent volume of distributed in Sprague-Dawley rat at 5 mg/kg, iv; assay type: ADME, organism-based; settings: in vivo, read-out: Vz
[16] = AUCinfinity in Sprague-Dawley rat at 5 mg/kg, iv; assay type: ADME, organism-based; design: time infinity, dose 5 mg/kg, route iv; settings: in vivo
[17] = biological target: T7, 5-hydroxytryptamine receptor 2C (Homo sapiens, UniProt P28335); assay: biochemical
T7 sequence (P28335 whole entry): T1 sequence (whole entry)

[18] = biological target: T4, 5-hydroxytryptamine receptor 2B; assay: biochemical
Rattus norvegicus [19] = assay type: functional; settings: Sprague-Dawley, route ip, time 15 min
[20] = biological target: T4, 5-hydroxytryptamine receptor 2B; assay: Displacement of [3H]LSD from human recombinant 5-HT2B receptor expressed in CHO cells by radioligand completion assay relative to control; assay type: cell-based
[21] = AUCinfinity in Sprague-Dawley rat at […], iv; assay type: ADME, organism-based; settings: in vivo
Rattus norvegicus [22] = assay type: functional; settings: Sprague-Dawley, route iv
Rattus norvegicus [23] = assay type: functional; settings: Sprague-Dawley, route iv; remark: listed apart in the source
[24] = biological target: T6, 5-hydroxytryptamine receptor 1A; assay: Displacement of [3H][…] from human recombinant 5-HT1A receptor expressed in HEK cells measured after 60 to 90 mins by radioligand completion assay relative to control; assay type: cell-based
[25] = biological target: T6, 5-hydroxytryptamine receptor 1A; assay: Displacement of [3H]5-CT from human recombinant 5-HT1A receptor expressed in CHO cells measured after 60 to 90 mins by radioligand completion assay relative to control; assay type: cell-based
Rattus norvegicus [26] = assay type: functional, organism-based; settings: Sprague-Dawley, dose 1.0 mg/kg, route ip, time 15.0 min
[27] = biological target: 5-hydroxytryptamine receptor 7 (Homo sapiens, UniProt P34969); assay: biochemical
Sequence of 5-hydroxytryptamine receptor 7 (P34969 whole entry): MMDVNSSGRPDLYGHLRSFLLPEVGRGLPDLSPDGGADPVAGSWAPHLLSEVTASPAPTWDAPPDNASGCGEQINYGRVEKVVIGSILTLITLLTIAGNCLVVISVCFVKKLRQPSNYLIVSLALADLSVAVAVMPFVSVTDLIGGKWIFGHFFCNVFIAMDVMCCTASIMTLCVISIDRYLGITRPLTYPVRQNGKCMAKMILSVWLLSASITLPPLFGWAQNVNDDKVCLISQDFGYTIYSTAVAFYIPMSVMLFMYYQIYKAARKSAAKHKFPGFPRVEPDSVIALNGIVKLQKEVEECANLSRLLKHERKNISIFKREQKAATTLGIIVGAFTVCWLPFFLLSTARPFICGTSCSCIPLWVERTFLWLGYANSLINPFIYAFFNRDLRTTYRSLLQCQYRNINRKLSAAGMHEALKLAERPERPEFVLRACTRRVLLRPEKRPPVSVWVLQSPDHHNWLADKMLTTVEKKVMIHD

SMILES	Activity [1]	Activity [2]	Activity [3]	Activity [4]	Activity [5]	Activity [6]	Activity [10]	Activity [11]	Ki [12]	Ki [13]	Activity ([7]; filed as agonist)	Activity ([8]; filed as agonist)	Ki [17]	Ki [18]	ED50 (Rattus norvegicus [19])	ED50 (Rattus norvegicus [22])	also measured
CC[C@@H]1CN2CC[C@@]3(O)C(=Nc4cccc(OC)c43)[C@@H]2C[C@@H]1/C(=C\OC)C(=O)OC	-13.9%	-0.8%	19.5%	3.1%	-18.3%	-1.4%	-0.2%	8.2%									Activity [7]: 1.2%; Activity [8]: 12.4%; Activity [9]: 3.9%
CC[C@@H]1CN2CCc3c([nH]c4cccc(OC)c34)[C@@H]2C[C@@H]1/C(=C\OC)C(=O)OC	14.7%	8.2%	-12.7%	9.7%	-8.2%	23%	-0.9%	-9.1%	5010 nM	5880 nM	76.7%	90.7%	> 10000 nM	1260 nM	26.8 mg/kg		CL [14]: 21.7 mL/min/kg; Vd [15]: 8 L/kg; AUC [16]: 849.8 ng·h/mL; Activity ([9]; filed as agonist): 49.9%
CC[C@H]1CN2CCc3c([nH]c4cccc(O)c34)[C@@H]2C[C@@H]1/C(=C\OC)C(=O)OC										294 nM				508 nM			
CC[C@H]1CN2CCc3c([nH]c4cccc(OC)c34)[C@@H]2C[C@@H]1/C(=C\OC)C(=O)OC		30.4%	1.5%				2.8%	11.3%	1320 nM	95.5 nM	98.7%		5430 nM	108 nM	9.1 mg/kg	5.92 mg/kg	Ki [20]: 23 nM; Activity ([1]; filed as agonist): 77.9%; AUC(0-inf) [21]: 495 ng·h/mL; Activity ([4]; filed as agonist): 58.9%; ED50 (Rattus norvegicus [23]): 11.6 mg/kg; Ki [24]: 38.5 nM
COC(=O)C1=COC[C@H]2CN3CCc4c([nH]c5ccccc45)[C@@H]3C[C@H]12	-5.3%		1.8%	33.2%	-12.5%	6.2%	5.1%	-2.5%			95.2%	89.3%					Activity [9]: 36.5%
C=C[C@H]1CN2CCc3c([nH]c4cccc(O)c34)[C@@H]2C[C@@H]1/C(=C\OC)C(=O)OC										97.7 nM				336 nM			
O=C1c2ccccc2S(=O)(=O)N1CCCCN1CCN(c2ncccn2)CC1 [IPSAPIRONE]															0.431 mg/kg	3.41 mg/kg	Ki [25]: 49.7 nM; Activity (Rattus norvegicus [26]): inactive; ED50 (Rattus norvegicus [23]): 7.68 mg/kg
CC[C@@H]1CN2CCc3c([nH]c4cccc(OC)c34)[C@H]2C[C@@H]1/C(=C\OC)C(=O)OC	14.3%	16.8%	0.7%	-4.8%	0.4%	-3.4%	1.5%	11.1%				47.1%					Activity [7]: 33.3%; Activity ([9]; filed as agonist): 68.1%
C=C[C@H]1CN2CCc3c([nH]c4cccc(OC)c34)[C@@H]2C[C@@H]1/C(=C\OC)C(=O)OC									815 nM	71.8 nM			1770 nM	83.1 nM	[…]	5.45 mg/kg	Ki [20]: 20 nM; Ki [24]: 32 nM; Ki [27]: 870 nM
